Common to all, as to assay type: biochemical
For experiment [1], the target named is T1, JAK3 (Homo sapiens, UniProt P52333).
T1 construct: purchased Carna Biosciences 08-046
Nature of the experiment: Functional assay of protein kinases (Caliper mobility shift), JAK3. The settings on record: ATP 8 μM, 30 min incubation. How it is done: (§1) Functional Assays of Protein Kinases
(§2) The functional assays of protein kinases were carried out in 384-well plates using a final volume of 30 μl. […] The reaction was reads in a “Caliper EzReader LabChip 3000” (Caliper, Hopkinton, Mass.) reader, based on electrophoretic mobility of the fluorescent substrate and the phosphorylated product.
(§3) The inhibition percentages were calculated by comparison between control reactions, for 100% of inhibition and reactions with only DMSO for 0% of inhibition.

Experiment [2] concerns the target T2, TYK2 (Homo sapiens, UniProt P29597).
T2 construct: purchased Carna Biosciences 08-147
T2 sequence (P29597 871-1187 limits assumed): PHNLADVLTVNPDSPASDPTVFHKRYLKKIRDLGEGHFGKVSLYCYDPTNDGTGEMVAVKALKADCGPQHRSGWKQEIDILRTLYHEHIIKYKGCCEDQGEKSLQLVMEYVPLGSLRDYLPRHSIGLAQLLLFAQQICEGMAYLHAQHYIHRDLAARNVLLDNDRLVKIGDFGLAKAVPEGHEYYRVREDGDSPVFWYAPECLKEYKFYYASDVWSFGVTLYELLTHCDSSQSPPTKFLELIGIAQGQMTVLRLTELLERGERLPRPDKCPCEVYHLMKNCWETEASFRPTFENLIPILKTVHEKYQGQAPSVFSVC
Nature of the experiment: Functional assay of protein kinases (Caliper mobility shift), TYK2. Particulars: ATP 20 μM, 45 min incubation. How it is done:
as §1, §2, §3

In experiment [3] the target is T3, JAK1 (Homo sapiens, UniProt P23458).
T3 construct: purchased Carna Biosciences 08-144
Nature of the experiment: Functional assay of protein kinases (Caliper mobility shift), JAK1. The settings on record: ATP 100 μM, 150 min incubation. How it is done:
as §1, §2, §3

Experiment [4] concerns the target T4, JAK2 (Homo sapiens, UniProt O60674).
T4 construct: purchased Carna Biosciences 08-045
In words: Functional assay of protein kinases (Caliper mobility shift), JAK2. The settings on record: ATP 300 μM, 30 min incubation. How it is done:
as §1, §2, §3

For orientation: IC50 means the concentration that inhibits the measured activity by half.

Some results are limits rather than exact numbers.

T4 sequence (O60674 826-1132 limits assumed): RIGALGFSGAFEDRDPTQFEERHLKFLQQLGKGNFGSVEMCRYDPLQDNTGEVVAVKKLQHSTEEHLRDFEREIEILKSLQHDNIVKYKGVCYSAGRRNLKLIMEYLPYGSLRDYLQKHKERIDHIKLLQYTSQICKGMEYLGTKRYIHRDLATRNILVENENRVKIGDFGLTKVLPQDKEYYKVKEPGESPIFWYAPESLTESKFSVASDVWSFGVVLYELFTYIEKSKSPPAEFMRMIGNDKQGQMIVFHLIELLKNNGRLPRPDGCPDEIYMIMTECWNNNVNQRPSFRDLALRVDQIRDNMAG
T1 sequence (P52333 795-1124 limits assumed): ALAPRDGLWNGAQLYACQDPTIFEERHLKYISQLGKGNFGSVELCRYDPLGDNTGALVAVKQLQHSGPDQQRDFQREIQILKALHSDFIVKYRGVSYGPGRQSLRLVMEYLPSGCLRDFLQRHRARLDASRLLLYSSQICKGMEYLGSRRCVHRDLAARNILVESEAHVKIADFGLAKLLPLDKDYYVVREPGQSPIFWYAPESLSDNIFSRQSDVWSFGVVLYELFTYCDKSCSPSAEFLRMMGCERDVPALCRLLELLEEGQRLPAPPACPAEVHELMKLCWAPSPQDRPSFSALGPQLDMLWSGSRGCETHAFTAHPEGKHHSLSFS
T3 sequence (P23458 850-1154 limits assumed): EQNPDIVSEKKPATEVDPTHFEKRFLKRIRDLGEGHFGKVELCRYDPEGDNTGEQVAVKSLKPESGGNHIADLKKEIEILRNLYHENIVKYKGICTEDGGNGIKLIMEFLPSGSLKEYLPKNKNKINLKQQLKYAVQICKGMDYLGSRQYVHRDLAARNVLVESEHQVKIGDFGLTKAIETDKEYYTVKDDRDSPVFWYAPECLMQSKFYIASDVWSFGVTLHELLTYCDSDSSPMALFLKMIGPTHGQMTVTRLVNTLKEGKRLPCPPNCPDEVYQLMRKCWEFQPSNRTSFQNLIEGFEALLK

For `O=C(N[C@H]1CC[C@@H](C(=O)O)CC1)c1cccn2c(=O)c3cc(-c4ccncc4F)ccc3nc12` [Example 36, (cis)-4-(2-(3-fluoropyridin-4-yl)-11-oxo-11H-pyrido[2,1-b]quinazoline-6-carboxamido)cyclohexane-1-carboxylic acid], the figures for the half-inhibitory concentration (IC50) in experiment [1] and in experiment [2] were less than 100 nM and 100 to 1000 nM, respectively.
`O=C(NC1CCC(C(=O)O)CC1)c1cccn2c(=O)c3cc(C4CC4)ccc3nc12` [Example 4, (1R,4R)-4-(2-cyclopropyl-11-oxo-11H-pyrido[2,1-b]quinazoline-6-carboxamido)cyclohexane-1-carboxylic acid]: the IC50 in experiment [3] was no less than 1000 nM; in experiment [4] it was no less than 1000 nM; in experiment [1], 100 to 1000 nM; in experiment [2], no less than 1000 nM.
For `O=C(O)c1ccc(-c2ccc3nc4c(C(=O)N[C@H]5CC[C@@H](C(=O)O)CC5)cccn4c(=O)c3c2)cc1` [Example 33, 4-(6-(((cis)-4-carboxycyclohexyl)carbamoyl)-11-oxo-11H-pyrido[2,1-b]quinazolin-2-yl)benzoic acid], the concentration for half-maximal inhibition (IC50) in experiment [1] and in experiment [2] was less than 100 nM each time.
For `N#Cc1ccc(-c2ccc3nc4c(C(=O)N[C@H]5CC[C@@H](C(=O)O)CC5)cccn4c(=O)c3c2)cc1` [Example 31, (cis)-4-(2-(4-cyanophenyl)-11-oxo-11H-pyrido[2,1-b]quinazoline-6-carboxamido)cyclohexane-1-carboxylic acid], the concentration for half-maximal inhibition (IC50) in experiment [1] and in experiment [2] was less than 100 nM in each case.
For `O=C(N[C@H]1CC[C@@H](C(=O)O)CC1)c1cccn2c(=O)c3cc(-c4ccc(C5CC5)s4)ccc3nc12` [Example 45, (1S,4S)-4-(2-(5-cyclpropylthiophen-2-yl)-11-oxo-11H-pyrido[2,1-b]quinazoline-6-carboxamido)cyclohexane-1-carboxylic acid], the IC50 in experiment [1] and in experiment [2] was less than 100 nM throughout.
In the case of `O=C(NC1CCC(C(=O)O)CC1)c1cccn2c(=O)c3ccccc3nc12` (stereo not shown) [Example 12, 4-(11-oxo-11H-pyrido[2,1-b]quinazoline-6-carboxamido)cyclohexane-1-carboxylic acid], the IC50 in experiment [3] was no less than 1000 nM; in experiment [4], no less than 1000 nM; in experiment [1] it was 100 to 1000 nM; in experiment [2], 100 to 1000 nM.
Turning to `O=C(N[C@H]1CC[C@@H](C(=O)O)CC1)c1cccn2c(=O)c3cc(-c4cncnc4)ccc3nc12` [Example 37, (cis)-4-(11-oxo-2-(pyrimidin-5-yl)-11H-pyrido[2,1-b]quinazoline-6-carboxamido)cyclohexane-1-carboxylic acid], the IC50 in experiment [1] is less than 100 nM; in experiment [2] it was 100 to 1000 nM.
Regarding `O=C(N[C@H]1CC[C@@H](C(=O)O)CC1)c1cccn2c(=O)c3cc(-c4cccs4)ccc3nc12` [Example 39, (cis)-4-(11-oxo-2-(thiophen-2-yl)-11H-pyrido[2,1-b]quinazoline-6-carboxamido)cyclohexane-1-carboxylic acid], the IC50 in experiment [1] and in experiment [2] was less than 100 nM throughout.
For `O=C(NC1CC(C(=O)O)C1)c1cccn2c(=O)c3cc(C4CC4)ccc3nc12` (stereo not shown) [Example 41, 3-(2-cyclopropyl-11-oxo-11H-pyrido[2,1-b]quinazoline-6-carboxamido)cyclobutane-1-carboxylic acid], the 50% inhibitory concentration (IC50) in experiment [1] and in experiment [2] was 100 to 1000 nM in each case.
For `O=C(NC1CCC(C(=O)O)CC1)c1cccn2c(=O)c3cc(O)ccc3nc12` (stereo not shown) [Example 19, 4-(2-hydroxy-11-oxo-11H-pyrido[2,1-b]quinazoline-6-carboxamido)cyclohexane-1-carboxylic acid], the half-maximal inhibitory concentration (IC50) in experiment [1] and in experiment [2] was 100 to 1000 nM each time.
For the compound `O=C(O)c1ccc(-c2ccc3nc4c(C(=O)N[C@H]5CC[C@@H](C(=O)O)CC5)cccn4c(=O)c3c2)s1` [Example 47, 5-(6-(((1s,4s)-4-carboxycyclohexyl)carbamoyl)-11-oxo-11H-pyrido[2,1-b]quinazolin-2-yl)thiophene-2-carboxylic acid], the IC50 in experiment [1] and in experiment [2] was less than 100 nM in each case.
Regarding `O=C(N[C@H]1CC[C@@H](C(=O)O)CC1)c1cccn2c(=O)c3cc(-c4ccccc4)ccc3nc12` [Example 15, (1S,4S)-4-(11-oxo-2-phenyl-11H-pyrido[2,1-b]quinazoline-6-carboxamido)cyclohexane-1-carboxylic acid], the IC50 in experiment [3] was no less than 1000 nM; in experiment [4], no less than 1000 nM; in experiment [1], less than 100 nM; in experiment [2], less than 100 nM.
With `O=C(N[C@H]1CC[C@@H](C(=O)O)CC1)c1cccn2c(=O)c3cc(-c4ccc(F)c(F)c4)ccc3nc12` [Example 30, (cis)-4-(2-(3,4-difluorophenyl)-11-oxo-11H-pyrido[2,1-b]quinazoline-6-carboxamido)cyclohexane-1-carboxylic acid], the IC50 in experiment [1] and in experiment [2] was less than 100 nM in each case.
Regarding `NC(=O)c1ccc(-c2ccc3nc4c(C(=O)N[C@H]5CC[C@@H](C(=O)O)CC5)cccn4c(=O)c3c2)s1` [Example 43, (1S,4S)-4-(2-(5-carbamoylthiophen-2-yl)-11-oxo-11H-pyrido[2,1-b]quinazoline-6-carboxamido)cyclohexane-1-carboxylic acid], the IC50 in experiment [1] and in experiment [2] was less than 100 nM each time.
Consider `N#Cc1cccc(-c2ccc3nc4c(C(=O)N[C@H]5CC[C@@H](C(=O)O)CC5)cccn4c(=O)c3c2)c1` [Example 32, (cis)-4-(2-(3-cyanophenyl)-11-oxo-11H-pyrido[2,1-b]quinazoline-6-carboxamido)cyclohexane-1-carboxylic acid], for which the IC50 in experiment [1] and in experiment [2] was less than 100 nM throughout.
`N#Cc1ccc(-c2ccc3nc4c(C(=O)N[C@H]5CC[C@@H](C(=O)O)CC5)cccn4c(=O)c3c2)s1` [Example 42, (1S,4S)-4-(2-(5-cyanothiophen-2-yl)-11-oxo-11H-pyrido[2,1-b]quinazoline-6-carboxamido)cyclohexane-1-carboxylic acid]: the IC50 in experiment [1] and in experiment [2] was less than 100 nM in each case.
With `O=C(N[C@H]1CC[C@@H](C(=O)O)CC1)c1cccn2c(=O)c3cc(-c4cccnc4)ccc3nc12` [Example 34, (cis)-4-(11-oxo-2-(pyridin-3-yl)-11H-pyrido[2,1-b]quinazoline-6-carboxamido)cyclohexane-1-carboxylic acid], the IC50 in experiment [1] and in experiment [2] was less than 100 nM in each case.
Regarding `O=C(N[C@H]1CC[C@@H](C(=O)O)CC1)c1cc(Br)cn2c(=O)c3ccccc3nc12` [Example 40, (cis)-4-(8-bromo-11-oxo-11H-pyrido[2,1-b]quinazoline-6-carboxamido)cyclohexane-1-carboxylic acid], the half-maximal inhibitory concentration (IC50) in experiment [1] was 100 to 1000 nM; in experiment [2], less than 100 nM.
With `Cn1cc(-c2ccc3nc4c(C(=O)N[C@H]5CC[C@@H](C(=O)O)CC5)cccn4c(=O)c3c2)cn1` [Example 38, (cis)-4-(2-(1-methyl-1H-pyrazol-4-yl)-11-oxo-11H-pyrido[2,1-b]quinazoline-6-carboxamido)cyclohexane-1-carboxylic acid], the IC50 in experiment [1] and in experiment [2] was less than 100 nM throughout.
For `Cc1ccc(-c2ccc3nc4c(C(=O)N[C@H]5CC[C@@H](C(=O)O)CC5)cccn4c(=O)c3c2)s1` [Example 2, (1S,4S)-4-(2-(5-methylthiophen-2-yl)-11-oxo-11H-pyrido[2,1-b]quinazoline-6 carboxamido)cyclohexane-1-carboxylic acid], the concentration for half-maximal inhibition (IC50) in experiment [1] and in experiment [2] was less than 100 nM in each case.
`O=C(N[C@H]1CC[C@@H](C(=O)O)CC1)c1cccn2c(=O)c3cc(-c4cccc(F)c4)ccc3nc12` [Example 29, (cis)-4-(2-(3-fluorophenyl)-11-oxo-11H-pyrido[2,1-b]quinazoline-6-carboxamido)cyclohexane-1-carboxylic acid]: the IC50 in experiment [1] and in experiment [2] was less than 100 nM each time.
Turning to `O=C(N[C@H]1CC[C@H](C(=O)O)CC1)c1cccn2c(=O)c3cc(-c4ccncc4)ccc3nc12` [Example 35, (trans)-4-(11-oxo-2-(pyridin-4-yl)-11H-pyrido[2,1-b]quinazoline-6-carboxamido)cyclohexane-1-carboxylic acid], the 50% inhibitory concentration (IC50) was 100 to 1000 nM in experiment [1] and no less than 1000 nM in experiment [2].
On to `O=C(NC1CCC(C(=O)O)CC1)c1cccn2c(=O)c3cc(C4CC4)ccc3nc12` (stereo not shown) [Example 1, 4-(2-cyclpropyl-11-oxo-11H-pyrido[2,1-b]quinazoline-6-carboxamido)cyclohexane-1-carboxylic acid], for which the figures for the IC50 in experiment [3], in experiment [4] and in experiment [1] were no less than 1000 nM, no less than 1000 nM and less than 100 nM, respectively.
As to `Cn1cnc(-c2ccc3nc4c(C(=O)N[C@H]5CC[C@@H](C(=O)O)CC5)cccn4c(=O)c3c2)c1` [Example 44, (1S,4S)-4-(2-(1-methyl-1H-Imidazol-4-yl)-11-oxo-11H-pyrido[2,1-b]quinazoline-6-carboxamido)cyclohexane-1-carboxylic acid], the concentration for half-maximal inhibition (IC50) in experiment [1] and in experiment [2] was less than 100 nM throughout.

These data come from patent US20200079773A1, “CARBOXYLIC ACID DERIVATIVES OF PYRIDOQUINAZOLINES USEFUL AS PROTEIN KINASE INHIBITORS” (ONCOSTELLAE, S.L., priority 2017, published 2020).
